For one data set, the system named is S. aureus 8325-4. The note with it: previous studies (Oliva et al., 2003); cited from earlier work.
A further data set relates to E. coli cells. As to the kind of experiment: Binding of compounds with bacterial cells (spectrofluorimetric analysis of cell lysates). The conditions noted are these: 5 min incubation. How it is done:
[…] At the end of the incubation period, the cells were sedimented by centrifugation to remove the fraction of unbound test compound and the cell pellet was resuspended in 2 ml of 2% SDS to obtain cell lysates. After overnight incubation with SDS, the amount of cell-bound test compound was estimated by spectrofluorimetric analysis of the cell lysates. The concentration of the compounds in the cell lysates was calculated by measuring the intensities at the maximum of the emission fluorescence spectrum and interpolating the data on a calibration plot. The amount of cell-bound test compound was expressed as nmoles of compound per mg of cell protein. The protein concentration was determined by the method of Lowry (Lowry et al., 1951, J. Biol. Chem. 193:265-275).
All experiments were run in triplicate and the results represent the average of 3 determinations with standard deviations.

Data set [1] in a line: Chemical stability, qualitative stress tests (HPLC, LC-MS). The class given is physicochemical. The note with it: solid, aqueous solution, PBS, 7 days each at 50, 70 and 90° C. On the procedure: The following HPLC methodology was established for the analysis of the exemplary compounds of the invention.
The method involves detection by UV at a wavelength of 420 nm, which is very specific for these compounds. In order to monitor impurities not related to the porphyrin structure (and therefore not absorbing at 420 nm) UV spectra of the whole chromatograms were also recorded between 200 nm and 700 nm by DAD (diode array detector) in certain experiments. • Column: Zorbax Phenyl, 250×4.6 mm, 5 µm • Eluent A: 1.5 g sodium dodecylsulfate+1 mL formic acid in 1000 mL water • Eluent B: 1.5 g sodium dodecylsulfate+1 mL formic acid in 200 mL water+800 mL tetrahydrofurane • Gradient:
• Flow rate: 0.4 mL/min • Detection: 420 nm • Column temperature: 25° C. • Injection volume: 10 μl • Solutions: Porphyrin derivatives were dissolved in eluent A to give a final concentration of approximately 0.3 mg/ml.
Qualitative stress tests were undertaken on the exemplary compounds of the invention. Analysis was undertaken by HPLC & LC-MS. The compounds were stress tested in solid form, in an aqueous solution and a solution made up in phosphate-buffered saline buffer. The samples were initially incubated for 7 days at 50° C. and a sample removed for testing. The samples were then incubated for a further 7 days at 70° C., samples removed as before and the samples incubated further for 7 days at 90° C. HPLC analysis of freshly prepared solutions was undertaken and compared to the samples after 7, 14 and 21 days incubation. A visual comparison of the chromatograms was then undertaken and the content of the main products and by-products as area percentage values determined (see FIG. 4).

Another data set has as its system S. aureus SH1000. As to the kind of experiment: Planktonic MIC by broth microdilution (BSAC guidelines). The class given is cell-based, Staphylococcus aureus. On the procedure: (§1) Methods: MICs were determined for planktonic cultures by broth microdilution according to British Society for Antimicrobial Chemotherapy (BSAC) guidelines. Biofilm MICs (bMIC) and minimum biofilm eradication concentrations (MBECs) were determined using the Calgary biofilm device. The effect of Compound 10 on the viability of cold culture cells was determined by growing S. aureus SH1000 to early exponential phase at 37° C. and resuspending the cells in pre-chilled media, where they were maintained in the presence and absence of Compound 10 and control agents. The effect of Compound 10 on slow growing cells expressing the stringent response was also determined by growing cultures to early log phase and the stringent response induced by the addition of the isoleucyl-tRNA synthetase inhibitor mupirocin. Compound 10 and control agents were then added and samples recovered for viable cell determinations.

For another data set, the system named is staphylococci. The conditions noted are these: cited from earlier work; for MIC Values: literature value (Critchley et al. 2003).
Data set [2] relates to S. aureus SH1000 cold cultures. Description: Time-kill against cold cultures (4° C.). The class given is cell-based, Staphylococcus aureus. The note with it: cold culture held at 4° C. for 5 hours, agents at 4×MIC. How it is done:
as §1
The effect of XF drugs on the viability of cold culture cells was determined by growing S. aureus SH1000 to early exponential phase at 37° C., harvesting the cells by centrifugation (5,000×g, 10 min.) and resuspending them in pre-chilled media where they were maintained in the presence and absence of XF drugs and control agents for 5 hours. […] (FIG. 11).
(§2) The anti-staphylococcal activities of Compound 10, Compound 12 and a range of comparator agents against slow-growing cultures of Staphylococcus aureus were studied using standard time-kill methodology (Oliva et al. 2003, Hobbs et al. 2008). Staphylococcus aureus SH1000 cultures were grown to early exponential phase (OD600 nm of 0.2) in Mueller-Hinton broth (MHB) before being exposed to antibacterial agents at 4×MIC. An untreated culture served as the negative control. The experiments were undertaken in triplicate.
Cold cultures were prepared by growing SH1000 cells to early exponential phase (OD600 nm of 0.2) at 37° C. Cultures were then centrifuged and the cell pellet was resuspended in MHB pre-chilled to 4° C. The killing kinetics of antimicrobial agents were studied as described in the section above, with the exception that cultures were maintained at 4° C. over the 5 hour sampling period.

The subject of data set [3] is S. aureus SH1000 biofilms. As to the kind of experiment: Biofilm MIC and minimum biofilm eradication concentration, Calgary Biofilm Device. The class given is cell-based, Staphylococcus aureus. The conditions noted are these: Staphylococcus aureus, SH1000BIOFILMS, read-out: bMIC. On the procedure: as §1
Biofilm MICs and minimum biofilm eradication concentrations (MBEC) were determined in the Calgary Biofilm Device (Nunc Inc, Roskilde, Denmark) as described by Miller et al., 2005. This involves the following steps. Aliquots (200 μL) of exponential phase cultures of strain SH1000 were added to each well of a 96-well microtitre tray. The lid assembly, which has 96 polystyrene pegs corresponding to each well, was then replaced and the system incubated for 24 hours at 37° C. on a rocking platform. Following this a biofilm of approximately 10^7 cfu matured on each peg. The lid was then washed twice in phosphate-buffered saline (PBS) to remove residual planktonic growth and then placed into a microtitre tray with fresh media containing doubling dilutions of the test antibiotic. The system was then incubated for 24 hours at 37° C. on a rocking platform. The MIC was defined as the lowest concentration of antibiotic completely inhibiting visible growth after this incubation. After the MIC was recorded, the lid assembly was again washed twice in PBS to remove planktonic cells and remaining antibiotic and then placed into fresh drug-free media. The system was incubated for a further 24 hours and the MBEC was defined as the lowest concentration of antibiotic completely inhibiting the re-establishment of planktonic growth.

For data set [4], the system named is stringent S. aureus SH1000 cultures. As to the kind of experiment: Time-kill against cultures expressing the stringent response (induced with mupirocin). The class given is cell-based, Staphylococcus aureus. The note with it: stringent response induced with mupirocin, agents at 4×MIC. How it is done: as §1
When nutrients become limiting for growth bacteria adjust their metabolism from one that supports growth to one that provides for long survival in the absence of nutrients. In many bacteria a key facilitator of this physiological switch, known as the stringent response, is accumulation of guanosine […] and pentaphosphate (Traxler et al., 2008). The antibiotic mupirocin is a strong inducer of the stringent response in S. aureus and effectively causes starvation of charged isoleucyl tRNA by potent inhibition of isoleucy ItRNA synthetase (IRS) (Oliva et al., 2003). The activity of XF drugs against S. aureus SH1000 prevented from growing by the addition of mupirocin (Oliva et al., 2003), was therefore examined (FIG. 10). As an alternative method for arresting growth, bacteria were suspended in cold growth medium (Mascio et al., 2007) and the bactericidal activity of XF drugs was also determined under these conditions (FIG. 11).
as §2
The antibiotic mupirocin is a strong inducer of the stringent response in S. aureus and causes starvation of charged isoleucyl tRNA by potent inhibition of isoleucyl tRNA synthetase (IRS) (Oliva et al. 2003, Cassels et al. 1995) Stringency was induced in SH1000 cultures by adding mupirocin (4 mg/L) to cells in the early exponential growth phase (OD600 nm of 0.2) (Oliva et al. 2003, Cassels et al. 1995). Cultures were incubated with mupirocin for 30 minutes before sampling began. Cultures were maintained at 37° C., and samples were taken at 30 minute intervals for 300 minutes, serially diluted in phosphate buffered saline (PBS) and diluted culture was spread on Mueller-Hinton agar and was incubated at 37° C. for 18-24 hours before the number of CFU were counted.

Setting [5] is: planktonic S. aureus SH1000 (Table 6).

Values after ≈ are worked out from the molar mass of the structure shown. “Also recorded” adds a separate entry of the source. Read-outs that look alike come from different tables or passages of the source. Marks after values point to notes of the source that are not given here.

As for `N[C@@H]1CON=C1O` [cycloserine], the “effect of the stringent response on bactericidal activity” value (shortened to “effect of the stringent response”) in the data set with S. aureus 8325-4 is reported as “completely abolishes the bactericidal activity”.
Regarding `CN(C)CCC[N+](C)(C)CCCOc1ccc(-c2c3nc(cc4ccc([nH]4)c(-c4ccc(OCCC[N+](C)(C)CCCN(C)C)cc4)c4nc(cc5ccc2[nH]5)C=C4)C=C3)cc1.[Cl-].[Cl-]` [Compound 8, 5,15-bis-(4-{3-[(3-Dimethylamino-propyl)-dimethyl-ammonio]-propyloxy}-phenyl)-porphyrin dichloride], the Bound compound in the data set with E. coli cells (0.01 μM compound, 0 washings) is 0.024 ± 0.01 nmoles/mg cell proteins; in the data set with E. coli cells (0.01 μM compound, 3 washings), 0.009 ± 0.001 nmoles/mg cell proteins; in the data set with E. coli cells (0.1 μM compound, 0 washings) it was 0.056 ± 0.02 nmoles/mg cell proteins; in the data set on E. coli cells (0.1 μM compound, 3 washings), 0.030 ± 0.02 nmoles/mg cell proteins; with E. coli cells (0.5 μM compound, 0 washings) it was 0.522 ± 0.2 nmoles/mg cell proteins; with E. coli cells (0.5 μM compound, 3 washings) it was 0.274 ± 0.15 nmoles/mg cell proteins. For the same compound, the Bound compound came to 3.670 ± 0.7 nmoles/mg cell proteins in the data set with E. coli cells (1 μM compound, 0 washings) and 2.230 ± 0.8 nmoles/mg cell proteins in the data set on E. coli cells (1 μM compound, 3 washings). In data set [1], the “Chemical stability under stress” value was “less stable than Compounds 10 and 12”.
In the case of `CN[C@H](CC(C)C)C(=O)N[C@H]1C(=O)N[C@@H](CC(N)=O)C(=O)N[C@H]2C(=O)N[C@H]3C(=O)N[C@H](C(=O)N[C@H](C(=O)O)c4cc(O)cc(O)c4-c4cc3ccc4O)[C@H](O)c3ccc(c(Cl)c3)Oc3cc2cc(c3O[C@@H]2O[C@H](CO)[C@@H](O)[C@H](O)[C@H]2O[C@H]2C[C@](C)(N)[C@H](O)[C@H](C)O2)Oc2ccc(cc2Cl)[C@H]1O` [Vancomycin], the MIC in the data set on S. aureus SH1000 (Staphylococcus aureus, SH1000) came to 1 µg/mL (≈ 0.69 µM); in the data set with S. aureus SH1000 (setting [5]), 1 µg/mL (≈ 0.69 µM); in data set [3] (24 h), 2 µg/mL (≈ 1.38 µM); in data set [3] it was 2 µg/mL (≈ 1.38 µM). Besides, the “MBC Values” with staphylococci (literature value (Biavasco et al. 1997; Fuchs et al. 2002)) was 4-16^b μg/mL. In addition, the “MIC Values” with staphylococci was 1^a μg/mL. In addition, the “viability / bactericidal activity in time-kill (in words)” value in data set [2] is reported as “no loss of viability; also recorded: abolished”; in data set [4], “no loss of viability”. For the same compound, the “effect of the stringent response” value in the data set on S. aureus 8325-4 is reported as “completely abolishes the bactericidal activity”.
On to `CC(=O)NC[C@H]1CN(c2ccc(N3CCOCC3)c(F)c2)C(=O)O1` [Zyvox ® (Linezolid), Linezolid], for which, in the data set on staphylococci, the “MIC Values” is given as 4^a μg/mL.
Take `C[C@@H]1O[C@@H]1P(=O)(O)O` [Fosfomycin]: the MIC amounted to 16 µg/mL (≈ 116 µM) with S. aureus SH1000 (Staphylococcus aureus, planktonic S. aureus SH1000 (Table 5), read-out: MIC); 16 µg/mL (≈ 116 µM) in the data set with S. aureus SH1000 (setting [5]); 8 µg/mL (≈ 57.9 µM) in data set [3] (24 h, biofilm MIC, S. aureus SH1000, Calgary Biofilm Device, 24 hours (Table 6)); 8 µg/mL (≈ 57.9 µM) in data set [3] (biofilm MIC, S. aureus SH1000, Calgary device (Example H)). Moreover, the “viability / bactericidal activity in time-kill (in words)” value is listed as “no loss of viability” in data set [2] and “no loss of viability; also recorded: completely attenuated” in data set [4]. Further, in the data set with S. aureus 8325-4, the “effect of the stringent response” value is “completely abolishes the bactericidal activity”.
